What was measured:
[1] = test system: male Wistar rats; assay: Treatment of rats with dimoxystrobin (iron concentration in the blood); format: in vivo, rat; conditions: for average iron level in the blood: fourth group: 6-week old rats; for average iron level in the blood / blood level of iron: 500 ppm each day via the food; for blood level of iron: second group: 3-week old rats; for level of iron in the blood: sixth group: 3-week old rats, 250 ppm each day
Protocol: 10 g of the phenylacetic acid derivative dimoxystrobin were prepared by known methods and purified by conventional methods.
Both 3-week old and 6-week old male Wistar rats (see Example 1) were employed for the subsequent experiments. These rats were divided into 6 equally sized groups of 10 rats. The rats were housed under conventional conditions.
The first group consisted of 3-week old rats. They received only the regular food over the entire period of the experiment.
The second group likewise consisted of 3-week old rats. The animals received 500 ppm (milligrams of test substance per […]) of dimoxystrobin each day. It was supplied via the food.
The third group consisted of 6-week old rats which received no active ingredient via the food.
The fourth group consisted of 6-week old rats which received 500 ppm dimoxystrobin via the food each day.
The fifth group consisted of 3-week old rats which received no active ingredient.
The sixth group consisted of 3-week old rats which received 250 ppm of the test substance dimoxystrobin each day.
The iron concentrations in the blood were determined both after 2 days and after 7 days.

[2] = test system: male Wistar rats; assay: Treatment of rats with an elevated iron level (iron level in the blood); format: in vivo, rat
Protocol: Two grams of the phenylacetic acid derivative orysastrobin were prepared by known methods and purified by conventional methods.
Six-week old male Wistar rats (Elévage Janvier, France) were employed for the experiments. These rats, which were housed under conventional conditions (20-24° C., 30-70% humidity, 12 hours illumination, standard food) were divided into five groups of equal size.
The first group was treated with no iron compound and no strobilurin derivative.
The second group was treated only with 200 mg of the phenylacetic acid derivative orysastrobin (as suspension by gavage).
The third group received a single intramuscular injection of 50 mg/kg of an iron(III) hydroxide-dextran complex (Myofer® 100), 1 ml of the injection solution comprising 320 mg of the complex (equivalent to 195 mg of Fe(OH)3).
The fourth group received both an injection of 50 mg/kg of the iron complex and, after 6 hours, a dose of 200 mg/kg of the strobilurin derivative by gavage.
The fifth group received both an injection of 50 mg/kg of the iron complex and, after 24 hours, a dose of 200 mg/kg of the strobilurin derivative by gavage.
24 hours before the start of the test, a blood sample was taken from all the rats, in each case at 8 o'clock in the morning of the preceding day, and was analyzed. The iron complex and/or the strobilurin derivative was administered at 8 o'clock in the morning of the day of the experiment. Further blood samples were taken from all the rats at 2 o'clock in the afternoon of the day of the experiment and at 8 o'clock in the morning of the next day, and were analyzed.

[3] = test system: HFE mice; assay: Treatment of HFE mice (serum iron level, model of hemochromatosis); format: in vivo, mouse; conditions: for reduction of serum iron concentration compared with control group: 2000 ppm in the food, 7 days
Protocol: This genetic defect leads to HFE mice having an elevated iron level in the liver, and this can serve as model of hemochromatosis disorder in humans. The HFE mice employed in the experiments were 12 to 23 weeks old (obtained from University College London, Department of Biochemistry and Molecular Biology).
The housing conditions of the mice corresponded to typical standards as have also been described in Example 1. In the experiments, investigations were carried out both with male HFE mice and with female HFE mice. In each case one group of animals received over a period of 7 days 2000 ppm of the phenylacetic acid derivative orysastrobin each day. The product was supplied freely in the food. The comparison group received only the regular food.

Row | Compound | average iron level in the blood ([1]; after 2 days, control 43.1) [µmol/L] | average iron level in the blood ([1]; after 7 days, control 44.0) [µmol/L] | finding at the duodenum ([1]; rats treated with dimoxystrobin, occurred only in the adult animals) | blood level of iron ([1]; after 2 days, control 92.6) [µmol/L] | blood level of iron ([1]; after 7 days) [µmol/L] | level of iron in the blood ([1]; after 2 days, control 96.7) [µmol/L] | level of iron in the blood ([1]; after 7 days, control 96.1) [µmol/L] | iron level in the blood ([2]; fifth group: 50 mg/kg iron complex i.m. plus 200 mg/kg orysastrobin by gavage, after 24 hours, iron only 147.8) [µmol/L] | iron level in the blood ([2]; fourth group: 50 mg/kg iron complex i.m. plus 200 mg/kg orysastrobin by gavage, after 6 hours, iron only 153.9) [µmol/L] | iron level in the blood ([2]; second group: only 200 mg orysastrobin by gavage, no iron, 6 hours after administration, untreated control 47.8) [µmol/L] | iron level in the blood ([2]; second group: only 200 mg orysastrobin by gavage, no iron, after 24 hours, untreated control 47.8) [µmol/L] | iron level (serum) ([3]; female HFE mice, 2000 ppm each day in the food, after one week, control 51.2) [µmol/L] | reduction of serum iron concentration compared with control group ([3]; female HFE mice) | serum iron level ([3]; male HFE mice, 2000 ppm each day in the food, after one week, control 40.06) [µmol/L] | reduction of serum iron concentration compared with control group ([3]; male HFE mice)
1 | CNC(=O)/C(=N/OC)c1ccccc1COc1cc(C)ccc1C [dimoxystrobin, (E)-2(methoximino)-N-methyl-2-[α-(2,5-xylyloxy)-o-tolyl]acetamide] | 34.2 | 36 | distinct thickening of the duodenum | 35.8 | 33.6 | 56 | 59.7 |  |  |  |  |  |  |  | 
2 | CNC(=O)/C(=N/OC)c1ccccc1CO/N=C(C)/C(=N/OC)C(/C)=N/OC [orysastrobin, (2E)-2(methoximino)-2-[2-[(3E,5E,6E)-5-(methoximino)-4,6-dimethyl-2 , 8-dioxa-3,7-diazanona-3,6-dien-1-yl]phenyl]-N-methylacetamide] |  |  |  |  |  |  |  | 91.9 | 83.1 | 20.6 | 26.3 | 36.66 | about 28% | 30.62 | about 24%
